Results reported in patent US20230303552A1, “ARYLSULFONYL DERIVATIVES AND THEIR USE AS MUSCARINIC ACETYLCHOLINE RECEPTOR M5 INHIBITORS” (Vanderbilt University, priority 2020, published 2023).

Target: T1, human M5 receptors (hM5) (Homo sapiens, UniProt P08912)
T1 construct: expressed in transfected cells
T1 sequence (P08912 1-532): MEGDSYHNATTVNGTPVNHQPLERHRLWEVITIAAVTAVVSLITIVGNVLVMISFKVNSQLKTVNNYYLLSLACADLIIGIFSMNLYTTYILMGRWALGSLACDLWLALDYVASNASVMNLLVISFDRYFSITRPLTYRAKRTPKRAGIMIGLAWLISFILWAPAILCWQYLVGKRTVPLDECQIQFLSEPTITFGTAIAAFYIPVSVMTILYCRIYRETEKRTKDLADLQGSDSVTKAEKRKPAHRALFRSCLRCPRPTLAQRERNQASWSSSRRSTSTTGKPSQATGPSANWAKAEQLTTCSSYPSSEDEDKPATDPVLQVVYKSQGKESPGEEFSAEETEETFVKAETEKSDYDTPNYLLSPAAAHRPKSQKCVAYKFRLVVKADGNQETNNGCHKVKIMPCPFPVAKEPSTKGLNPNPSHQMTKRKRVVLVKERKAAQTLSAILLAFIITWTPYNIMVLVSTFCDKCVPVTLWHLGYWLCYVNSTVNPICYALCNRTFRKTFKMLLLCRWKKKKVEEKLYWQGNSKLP
Assay: Cell-based functional calcium mobilization assay of mAChR M5 activity (inhibition of EC80 acetylcholine response) in CHO cells
Details: CHO cells stably expressing hM5; for IC50: calcium flux (Fluo-4), EC80 acetylcholine addition; for EC80 MIN: minimum of EC80 acetylcholine response, normalized to maximum acetylcholine response
Summary of the method: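 CHO cells stably expressing human M5, loaded with Fluo-4 AM in HBSS/20 mM HEPES/2.5 mM probenecid pH 7.4. Compound added 140 s before acetylcholine EC20, then EC80 added 125 s later. Calcium flux normalized to maximal acetylcholine response; IC50 from ten-point curves in the EC80 window.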

| Compound | IC50 | EC80 MIN |
| --- | --- | --- |
| O=C(Nc1ccc2scnc2c1)C1CCN(S(=O)(=O)c2cccc3ncccc23)CC1 [Compound 46, N-(benzo[d]thiazol-5-yl)-1-(quinolin-5-ylsulfonyl)piperidine-4-carboxamide] | > 10 µM | 37% |
| Cc1nc2ccc(S(=O)(=O)N3CCC(C(=O)Nc4ccc5scnc5c4)CC3)cc2s1 [Compound 47] | > 10 µM | 47% |
| O=C(Nc1ccc2scnc2c1)C1CCN(S(=O)(=O)c2ccc3c(c2)OCCO3)CC1 [Compound 48, N-(benzo[d]thiazol-5-yl)-1-((2.3-dihydrobenzo[b][1,4]dioxin-6-yl)sulfonyl)piperidine-4-carboxamide] | 1.79 µM | 5% |
| Cc1cc2c(cc1S(=O)(=O)N1CCC(C(=O)Nc3ccc4scnc4c3)CC1)OCO2 [Compound 49, N-(benzo[d]thiazol-5-yl)-1-((6-methylbenzo[d][1,3]dioxol-5-yl)sulfonyl)pipcridinc-4-carboxamide] | > 10 µM | 8% |
| O=C(Nc1ccc2scnc2c1)C1CCN(S(=O)(=O)c2ccc3c(c2)CCCO3)CC1 [Compound 50, N-(benzo[d]thiazol-5-yl)-1-(chroman-6-ylsulfonyl)pipcridinc-4-carboxamide] | 1.85 µM | 4% |
| N#Cc1cccc(S(=O)(=O)N2CCC(C(=O)Nc3ccc4scnc4c3)CC2)c1 [Compound 51, N-(benzo[d]thiazol-5-yl)-1-((3-cyanophenyl)sulfonyl)piperi dine4-carboxamide] | 3.53 µM | 38% |
| COc1ccccc1S(=O)(=O)N1CCC(C(=O)Nc2ccc3scnc3c2)CC1 [Compound 52, N-(benzo[d]thiazol-5-yl)-1-((2-methoxyphenyl)sulfonyl)pi peridine-4-carboxamide] | > 10 µM | 24% |
| O=C(Nc1ccc2scnc2c1)C1CCN(S(=O)(=O)c2ccccc2OC(F)(F)F)CC1 [Compound 53, N-(benzo[d]thiazol-5-yl)-1-((2-(trifluoromethoxy)phenyl)sulfonyl)piperidine-4-carboxamide] | 4.11 µM | 4% |
| O=C(Nc1ccc2scnc2c1)C1CCN(S(=O)(=O)c2cccc(C(F)(F)F)c2)CC1 [Compound 54, N-(benzo[d]thiazol-5-yl)-1-((3-(trifluoromethyl)phenyl)sulfonyl)piperidine-4-carboxamide] | > 10 µM | 51% |
| O=C(Nc1ccc2scnc2c1)[C@H]1CCN(S(=O)(=O)c2ccc3c(c2)CCO3)C1 [Compound 55, (S)-N-(benzo[d]thiazol-5-yl)-1-((2,3-dihydrobenzofuran-5-yl)sulfonyl)pyrrolidine-3-carboxamide] | 0.361 µM | 3% |
| O=C(Nc1ccc2scnc2c1)[C@H]1CCN(S(=O)(=O)c2cc3c(cc2F)OCC3)C1 [Compound 56, (S)-N-(benzo[d]thiazol-5-yl)-1-((6-fluoro-2.3-dihydrobenzofuran-5-yl)sulfonyl)pyrrolidine-3-carboxamide] | 0.719 µM | 2% |
| O=C(Nc1ccc2scnc2c1)C1CCN(S(=O)(=O)c2ccc3c(c2Br)CCO3)CC1 [Compound 57, N-(benzo[d]thiazol-5-yl)-1-((4-bromo-2,3-dihydrobenzofuran-5-yl)sulfonyl)piperidine-4-carboxamide] | 0.333 µM | 2% |
| O=C(Nc1ccc2scnc2c1)C1CCN(S(=O)(=O)c2ccc(Br)c3c2OCC3)CC1 [Compound 58, N-(benzo[d]thiazol-5-yl)-1-((4-bromo-2,3-dihydrobenzofuran-7-yl)sulfonyl)piperidine-4-carboxamide] | > 10 µM | 34% |
| O=C(Nc1ccc2scnc2c1)[C@@H]1CCN(S(=O)(=O)c2ccc3c(c2Br)CCO3)C1 [Compound 59, (R)-N-(benzo[d]thiazol-5-yl)-1-((4-bromo-2,3-dihydrobenzofuran-5-yl)sulfonyl)pyrrolidine-3-carboxamide] | 0.487 µM | 2% |
| O=C(Nc1ccc2scnc2c1)[C@@H]1CCN(S(=O)(=O)c2ccc(Br)c3c2OCC3)C1 [Compound 60, (R)-N-(benzo[d]thiazol-5-yl)-1-((4-bromo-2,3-dihydrobenzofuran-7-yl)sulfonyl)pyrrolidine-3-carboxamide] | > 10 µM | 31% |
| O=C(Nc1ccc2scnc2c1)C1CCN(S(=O)(=O)c2c(Cl)ccc3nonc23)CC1 [Compound 61, N-(benzo[d]thiazol-5-yl)-1-((5-chlorobenzo[c][1,2,5]oxadiazol-4-yl)sulfonyl)piperidine-4-carboxamide] | > 10 µM | 60% |

| Compound | IC50 | EC80 MIN |
| --- | --- | --- |
| COc1ccc(S(=O)(=O)N2CCC(C(=O)Nc3ccc4scnc4c3)CC2)c(C)c1 [Compound 62, N-(benzo[d]thiazol-5-yl)-1-((4-methoxy-2-methylphenyl)sulfonyl)pipe ridine-4-carboxamide] | > 10 µM | 22% |
| O=C(Nc1ccc2scnc2c1)C1CCN(S(=O)(=O)c2cccc(F)c2)CC1 [Compound 63, N-(benzo[d]thiazol-5-yl)-1-((3-fluorophenyl)sulfonyl)piper idine-4-carboxamide] | 2.55 µM | 2% |
| O=C(Nc1ccc2scnc2c1)C1CCN(S(=O)(=O)c2ccccc2C(F)(F)F)CC1 [Compound 64, N-(benzo[d]thiazol-5-yl)-1-((2-(trifluoromethyl)phenyl)sulfonyl)piperidine-4-carboxamide] | > 10 µM | 2% |
| O=C(Nc1ccc2scnc2c1)C1CCN(S(=O)(=O)c2ccccc2Cl)CC1 [Compound 65, N-(benzo[d]thiazol-5-yl)-1-((2-chlorophenyl)sulfonyl)piper idine-4-carboxamide] | 0.652 µM | 2% |
| O=C(Nc1ccc2scnc2c1)C1CCN(S(=O)(=O)c2ccc(Cl)cc2)CC1 [Compound 66, N-(benzo[d]thiazol-5-yl)-1-((4-chlorophenyl)sulfonyl)piper idine-4-carboxamide] | > 10 µM | 16% |
| O=C(Nc1ccc2scnc2c1)C1CCN(S(=O)(=O)c2ccc(F)cc2)CC1 [Compound 67, N-(benzo[d]thiazol-5-yl)-1-((4-fluorophenyl)sulfonyl)piper idine-4-carboxamide] | > 10 µM | 7% |
| O=C(Nc1ccc2scnc2c1)C1CCN(S(=O)(=O)c2ccccn2)CC1 [Compound 68, N-(benzo[d]thiazol-5-yl)-1-(pyridin-2-ylsulfonyl)piperidine-4-carboxamide] | > 10 µM | 39% |
| O=C(Nc1ccc2scnc2c1)[C@@H]1CCN(S(=O)(=O)c2cc(I)c3c(c2)CCO3)C1 [Compound 74, (R)-N-(benzo[d]thiazol-5-yl)-1((7-iodo-2,3-dihydrobenzofuran-5-yl)sulfonyl)pyrrolidine-3-carboxamide] | 0.895 µM | 2% |
| O=C(Nc1ccc2scnc2c1)[C@@H]1CCN(S(=O)(=O)c2ccc(Cl)nc2)C1 [Compound 76, (R)-N-(benzo[d]thiazol-5-yl)-1-((6-chloropyridin-3-yl)sulfonyl)pyrrolidine-3-carboxamide] | > 10 µM | 23% |
| C[C@H]1CN(S(=O)(=O)c2ccc3c(c2)CCO3)C[C@@H]1C(=O)Nc1ccc2scnc2c1 [Compound 78] | 0.076 µM | 3% |
| Cc1cc(S(=O)(=O)N2CC[C@@H](C(=O)Nc3ccc4scnc4c3)C2)cc2c1OCC2 [Compound 83, (R)-N-(benzo[d]thiazol-5-yl)-1-((7-methyl-2,3-dihydrobenzofuran-5-yl)sulfonyl)pyrrolidine-3-carboxamide] | 1.46 µM | 3% |
| CN(C(=O)C1CCN(S(=O)(=O)c2ccc3c(c2)CCO3)CC1)c1ccc2scnc2c1 [Compound 84, N-(Benzo[d]thiazol-5-yl)-1-((2,3-Dihydrobenzofuran-5-yl)Sulfonyl)-N-Methylpiperidine-4-Carboxamide] | > 10 µM | – |
| CC(=O)N(C(=O)C1CCN(S(=O)(=O)c2ccc3c(c2)CCO3)CC1)c1ccc2scnc2c1 [Compound 85, N-Acetyl-N-(Benzo[d]thiazol-5-yl)-1-((2,3-Dihydrobenzofuran-5-yl)Sulfonyl)Piperidine-4-Carboxamide] | 1.75 µM | 3% |
| O=C(Nc1cnc2cc[nH]c2c1)C1CCN(S(=O)(=O)c2ccc3c(c2)CCO3)CC1 [Compound 89, 1-((2,3-dihydrobenzofuran-5-yl)sulfonyl)-N-(1H-pyrrolo[3,2-b]pyridin-6-yl)piperidine-4-carboxamide] | > 10 µM | 79% |
| O=C(Nc1cnc2[nH]ccc2c1)C1CCN(S(=O)(=O)c2ccc3c(c2)CCO3)CC1 [Compound 90, 1-((2,3-dihydrobenzofuran-5-yl)sulfonyl)-N-(1H-pyrrolo[2,3-b]pyridin-5-yl)piperidine-4-carboxamide] | > 10 µM | 69% |
| Cc1nc2cc(NC(=O)C3CCN(S(=O)(=O)c4ccc5c(c4)CCO5)CC3)ccc2s1 [Compound 91, 1-((2,3-Dihydrobenzofuran-5-yl)Sulfonyl)-N-(2-Methylbenzo[d]thiazol-5-yl)Piperidine-4-Carboxamide] | 0.138 µM | 17% |
